Values joined by “and” are separate entries in the source; they are usually repeats but may differ in a detail not shown here. Equal values may be shown once. Read-outs that look alike come from different tables or passages of the source.
Columns and labels:
PfCRT^Ecu1110 [1] = biological target: T1, PfCRT^Ecu1110 (Plasmodium falciparum, UniProt Q9N623, A220S/I356L/K76T/N326D); assay: [3H]CQ uptake into Xenopus oocytes, cis-inhibition by unlabelled solute; assay type: cell-based
Procedure, shortened: (§1)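 Using pH 5.5 ND96 at 27.5 °C, uptake is followed for 1.5 h, stopped with ice-cold buffer, and quantified as accumulated radioactivity per oocyte after SDS lysis.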

PfCRT^Dd2 [2] = biological target: T2, PfCRT^Dd2 (Plasmodium falciparum, UniProt Q9N623, A220S/I356T/K76T/M74I/N326S/N75E/Q271E/R371I); assay: as above; assay type: cell-based
T2 sequence (Q9N623 whole entry A220S/I356T/K76T/M74I/N326S/N75E/Q271E/R371I): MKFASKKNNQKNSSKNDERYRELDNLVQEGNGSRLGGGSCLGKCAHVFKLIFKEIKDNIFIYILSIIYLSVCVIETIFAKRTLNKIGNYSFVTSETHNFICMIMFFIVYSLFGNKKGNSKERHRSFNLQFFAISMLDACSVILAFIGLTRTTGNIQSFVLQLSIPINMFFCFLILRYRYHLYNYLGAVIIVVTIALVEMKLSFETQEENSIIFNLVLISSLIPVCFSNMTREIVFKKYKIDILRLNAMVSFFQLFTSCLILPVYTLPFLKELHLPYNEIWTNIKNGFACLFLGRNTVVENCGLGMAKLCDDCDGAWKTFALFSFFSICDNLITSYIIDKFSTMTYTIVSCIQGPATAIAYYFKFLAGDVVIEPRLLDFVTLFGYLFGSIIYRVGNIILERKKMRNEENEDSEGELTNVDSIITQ
Procedure, shortened: as §1

non-expressing oocytes [3] = assay type: cell-based, Xenopus laevis
Procedure, shortened: (§2)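 Oocytes (ten per treatment, ≥4 independent frogs/days) were preloaded by injecting VF-6 in 25 nL ND96 at pH 5.0, 5.5, 6.0 or 7.0, or Na^+-free choline buffer, then uptake run 1.5 h, 27.5 °C, ND96 pH 5.5 by default. Internal concentrations assumed ~400 nL oocyte volume.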

PfCRT^Ecu1110 [4] = biological target: T1, PfCRT^Ecu1110; assay: cell-based; assay type: cell-based; details: […]
Procedure, shortened: as §2

PfCRT^Dd2 [5] = biological target: T2, PfCRT^Dd2; assay: cell-based; assay type: cell-based; details: […]; for activity at 45000 µM: [test solute]i = 45 mM (30 mM for some solutes due to solubility)
Procedure, shortened: as §2

PfCRT^3D7 [6] = biological target: T3, PfCRT^3D7 (Plasmodium falciparum, UniProt Q8IBZ9); assay: cell-based; assay type: cell-based
T3 sequence (Q8IBZ9 59-398): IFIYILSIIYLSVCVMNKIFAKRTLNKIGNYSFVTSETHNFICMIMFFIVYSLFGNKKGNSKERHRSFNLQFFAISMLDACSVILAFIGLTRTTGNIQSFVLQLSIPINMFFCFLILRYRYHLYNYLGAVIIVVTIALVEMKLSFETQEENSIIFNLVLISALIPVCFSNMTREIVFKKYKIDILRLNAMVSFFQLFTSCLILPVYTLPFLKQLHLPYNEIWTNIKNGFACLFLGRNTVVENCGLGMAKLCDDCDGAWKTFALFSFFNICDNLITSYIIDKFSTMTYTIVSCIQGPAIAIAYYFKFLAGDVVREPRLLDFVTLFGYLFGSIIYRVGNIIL
Procedure, shortened: as §2

PfNT1 = biological target: T4, PfNT1 (Plasmodium falciparum, UniProt Q8IDM6); assay: cell-based; assay type: cell-based; details: […]
T4 construct: expressed in transfected cells; host or cells: Xenopus laevis oocytes (stage V-VI), cRNA-injected
T4 sequence (Q8IDM6 whole entry): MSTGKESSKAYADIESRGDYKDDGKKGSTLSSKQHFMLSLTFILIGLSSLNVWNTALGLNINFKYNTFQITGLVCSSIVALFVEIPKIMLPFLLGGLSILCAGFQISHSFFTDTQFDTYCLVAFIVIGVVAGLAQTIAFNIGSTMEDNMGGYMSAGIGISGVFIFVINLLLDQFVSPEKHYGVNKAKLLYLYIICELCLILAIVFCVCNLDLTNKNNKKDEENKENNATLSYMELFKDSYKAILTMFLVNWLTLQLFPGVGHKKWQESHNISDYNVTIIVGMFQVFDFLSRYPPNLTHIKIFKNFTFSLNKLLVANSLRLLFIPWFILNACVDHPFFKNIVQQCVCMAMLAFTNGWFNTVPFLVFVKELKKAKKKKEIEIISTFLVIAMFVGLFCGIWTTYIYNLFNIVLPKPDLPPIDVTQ
Procedure, shortened: as §2

non-expressing oocytes [7] = assay: cells; assay type: cell-based, Xenopus laevis; details: Xenopus laevis, Oocyte
Procedure, shortened: as §1

PfCRT [8] = assay: Influx of VF-6 via PfCRT into the oocyte, solutes tested as potential co-substrates; assay type: cell-based, Plasmodium falciparum; set-up: key: X: Compounds that have been tested as potential co-substrates but are not required for influx of VF-6 via PfCRT into the oocyte; details: X marks the solute
PfCRT^3D7 [9] = biological target: T3, PfCRT^3D7; assay: cell-based; assay type: cell-based; remark: listed apart in the source
Procedure, shortened: as §1

PfCRT [10] = assay: Test of solutes as potential co-substrates for influx of VF-6 via PfCRT into the oocyte; assay type: cell-based, Plasmodium falciparum; set-up: key: X: Compounds that have been tested as potential co-substrates but are not required for influx of VF-6 via PfCRT into the oocyte; details: X = tested
[11] = read-out: PfCRT-mediated [3H]CQ transport, cis-inhibition (% PfCRTEcu1110 control)
[12] = read-out: Uptake of [3H]CQ (% PfCRTDd2 control), cis-inhibition, PfCRTEcu1110, SEM
[13] = read-out: Uptake of [3H]CQ (% PfCRTEcu1110 control), cis-inhibition
[14] = read-out: [3H]CQ transport (% PfCRTEcu1110 control), cis-inhibition, PfCRTEcu1110, SEM
[15] = read-out: PfCRT-mediated [3H]CQ transport, cis-inhibition (% PfCRTDd2 control)
[16] = read-out: Uptake of [3H]CQ (% PfCRTDd2 control), cis-inhibition, PfCRTDd2, SEM
[17] = read-out: PfCRT-mediated [3H]CQ transport, trans-stimulation (% PfCRT3D7 control)
[18] = read-out: Uptake of [3H]CQ (% PfCRT3D7 control), trans-stimulation
[19] = read-out: Uptake of [3H]CQ (% PfCRTDd2 control), trans-stimulation, PfCRT3D7, SEM
[20] = read-out: Uptake of [3H]CQ (% PfCRTDd2 control), trans-stimulation, PfNT1, SEM
[21] = read-out: Uptake of [3H]CQ (% PfNT1 control), trans-stimulation
[22] = read-out: Uptake of [3H]CQ (% PfCRTDd2 control), cis-inhibition, non-expressing oocytes, SEM
[23] = read-out: Uptake of [3H]CQ (% non-expressing oocyte control), cis-inhibition
[24] = read-out: Uptake of [3H]CQ (% PfCRT3D7 control), cis-inhibition
[25] = read-out: Uptake of [3H]CQ (% PfCRTDd2 control), cis-inhibition, PfCRT3D7, SEM

T1 sequence (Q9N623 whole entry A220S/I356L/K76T/N326D): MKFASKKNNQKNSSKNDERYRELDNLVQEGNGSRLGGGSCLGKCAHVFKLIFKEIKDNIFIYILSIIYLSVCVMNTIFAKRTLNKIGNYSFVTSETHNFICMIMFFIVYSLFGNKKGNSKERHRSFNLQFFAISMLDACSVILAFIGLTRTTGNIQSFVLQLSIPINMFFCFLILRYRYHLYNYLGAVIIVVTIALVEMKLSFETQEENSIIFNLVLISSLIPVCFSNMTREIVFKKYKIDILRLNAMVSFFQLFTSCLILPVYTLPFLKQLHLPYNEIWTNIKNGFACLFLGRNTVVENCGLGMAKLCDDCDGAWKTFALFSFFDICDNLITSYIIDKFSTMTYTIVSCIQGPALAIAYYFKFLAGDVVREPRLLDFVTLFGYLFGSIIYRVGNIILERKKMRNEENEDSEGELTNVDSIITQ

Compound: N[C@@H](Cc1ccc(O)cc1)C(=O)O [L-tyrosine]
- inhibition at 500 µM (PfCRT^Ecu1110 [1]; [11]): 96 ± 5.3%
- inhibition at 2000 µM (PfCRT^Ecu1110 [1]; [11]): 95 ± 3.4%
- inhibition at 500 µM (PfCRT^Ecu1110 [1]; [12]): 32 ± 1%
- inhibition at 1000 µM (PfCRT^Ecu1110 [1]; [12]): 32 ± 1.1%
- inhibition at 2000 µM (PfCRT^Ecu1110 [1]; [12]): 32 ± 1.7%
- inhibition at 500 µM (PfCRT^Ecu1110 [1]; [13]): 99 ± 1.4%
- inhibition at 1000 µM (PfCRT^Ecu1110 [1]; [13]): 101 ± 1.4%
- inhibition at 2000 µM (PfCRT^Ecu1110 [1]; [13]): 97 ± 1.5%
- inhibition at 500 µM (PfCRT^Ecu1110 [1]; [14]): 29 ± 0.7%
- inhibition at 1000 µM (PfCRT^Ecu1110 [1]; [14]): 29 ± 1.5%
- inhibition at 2000 µM (PfCRT^Ecu1110 [1]; [14]): 29 ± 0.5%
- inhibition at 500 µM (PfCRT^Dd2 [2]; [15]): 94 ± 4.6%
- inhibition at 2000 µM (PfCRT^Dd2 [2]; [15]): 97 ± 3.5%
- inhibition at 500 µM (PfCRT^Dd2 [2]; [16]): 96 ± 3.2%
- inhibition at 1000 µM (PfCRT^Dd2 [2]; [16]): 98 ± 2.3%
- inhibition at 2000 µM (PfCRT^Dd2 [2]; [16]): 99 ± 1.4%
- Uptake of [3H]CQ (% non-expressing oocyte control), trans-stimulation (non-expressing oocytes [3]): 99 ± 3.3 % non-expressing oocyte control and 98 ± 4.2 % non-expressing oocyte control
- Uptake of [3H]CQ (% PfCRTDd2 control), trans-stimulation, non-expressing oocytes (non-expressing oocytes [3]; SEM): 2.4 ± 0.01 % PfCRTDd2 control and 2.5 ± 0.01 % PfCRTDd2 control
- activity at 5000 µM (PfCRT^Ecu1110 [4]; pH 5.5, read-out: PfCRT-mediated [3H]CQ transport, trans-stimulation (% PfCRTEcu1110 control), [test solute]i = 5 mM (intracellular), PfCRTEcu1110 oocytes, normalised to oocyte type control): 97 ± 1.8%
- activity at 5000 µM (PfCRT^Ecu1110 [4]; pH 5.5, read-out: Uptake of [3H]CQ (% PfCRTEcu1110 control), trans-stimulation, PfCRTEcu1110 oocytes, [test solute]i = 5 mM, total [3H]CQ transport, normalised to the oocyte type control): 99 ± 2.6%
- activity at 45000 µM (PfCRT^Ecu1110 [4]; pH 5.5, read-out: Uptake of [3H]CQ (% PfCRTEcu1110 control), trans-stimulation, PfCRTEcu1110 oocytes, [test solute]i = 45 mM (30 mM for some solutes due to solubility), total [3H]CQ transport, normalised to the oocyte type control): 100 ± 3.1%
- activity at 5000 µM (PfCRT^Ecu1110 [4]; read-out: Uptake of [3H]CQ (% PfCRTDd2 control), trans-stimulation, PfCRTEcu1110, total [3H]CQ transport, [test solute]i = 5 mM (intracellular), mean ± SEM, SEM): 35 ± 2.1%
- activity at 45000 µM (PfCRT^Ecu1110 [4]; read-out: Uptake of [3H]CQ (% PfCRTDd2 control), trans-stimulation, PfCRTEcu1110, total [3H]CQ transport, [test solute]i = 45 mM (intracellular; 30 mM for some solutes due to solubility), mean ± SEM, SEM): 36 ± 1.8%
- activity at 5000 µM (PfCRT^Dd2 [5]; pH 5.5, read-out: PfCRT-mediated [3H]CQ transport, trans-stimulation (% PfCRTDd2 control), [test solute]i = 5 mM (intracellular), PfCRTDd2 oocytes, normalised to oocyte type control): 99 ± 2.6%
- activity at 5000 µM (PfCRT^Dd2 [5]; pH 5.5, read-out: Uptake of [3H]CQ (% PfCRTDd2 control), trans-stimulation, PfCRTDd2, total [3H]CQ transport, [test solute]i = 5 mM (intracellular), mean ± SEM, SEM): 101 ± 3.3%
- activity at 5000 µM (PfCRT^Dd2 [5]; pH 5.5, read-out: Uptake of [3H]CQ (% PfCRTDd2 control), trans-stimulation, PfCRTDd2 oocytes, [test solute]i = 5 mM, total [3H]CQ transport, normalised to the oocyte type control): 101 ± 3.3%
- activity at 45000 µM (PfCRT^Dd2 [5]; pH 5.5, read-out: Uptake of [3H]CQ (% PfCRTDd2 control), trans-stimulation, PfCRTDd2 oocytes, total [3H]CQ transport, normalised to the oocyte type control): 96 ± 2.4%
- activity at 5000 µM (PfCRT^Dd2 [5]; pH 5.5, read-out: [3H]CQ transport (% PfCRTDd2 control), trans-stimulation, PfCRTDd2, trans-stimulation, [test solute]i = 5 mM (injected), PfCRT-mediated component (background subtracted), mean ± SEM, SEM): 99 ± 2.6%
- activity at 45000 µM (PfCRT^Dd2 [5]; pH 5.5, read-out: [3H]CQ transport (% PfCRTDd2 control), trans-stimulation, PfCRTDd2, trans-stimulation, PfCRT-mediated component (background subtracted), mean ± SEM, SEM): 94 ± 3.3%
- [3H]CQ transport (% PfCRT3D7 control), trans-stimulation, PfCRT3D7 (PfCRT^3D7 [6]; SEM): 0.3 ± 0.04 % PfCRT3D7 control
- activity at 5000 µM (PfCRT^3D7 [6]; [17]): 97 ± 3.4%
- activity at 45000 µM (PfCRT^3D7 [6]; [17]): 98 ± 2.2%
- activity at 5000 µM (PfCRT^3D7 [6]; [18]): 99 ± 2.2%
- activity at 45000 µM (PfCRT^3D7 [6]; [18]): 100 ± 2.4%
- activity at 5000 µM (PfCRT^3D7 [6]; [19]): 3.3 ± 0.04%
- activity at 45000 µM (PfCRT^3D7 [6]; [19]): 3.3 ± 0.01%
- activity at 5000 µM (PfNT1; [20]): 2.2 ± 0.02%
- activity at 45000 µM (PfNT1; [20]): 2.2 ± 0.02%
- activity at 5000 µM (PfNT1; [21]): 100 ± 3.7%
- activity at 45000 µM (PfNT1; [21]): 99 ± 2.2%
- inhibition at 500 µM (non-expressing oocytes [7]; [22]): 2.5 ± 0.03%
- inhibition at 1000 µM (non-expressing oocytes [7]; [22]): 4.2 ± 0.03%
- inhibition at 2000 µM (non-expressing oocytes [7]; [22]): 2.9 ± 0.04%
- inhibition at 500 µM (non-expressing oocytes [7]; [23]): 96 ± 4.2%
- inhibition at 1000 µM (non-expressing oocytes [7]; [23]): 99 ± 5.3%
- inhibition at 2000 µM (non-expressing oocytes [7]; [23]): 101 ± 3.9%
- Compounds that have been tested as potential co-substrates but are not required for influx of VF-6 via PfCRT into the oocyte (PfCRT [8]): X
- inhibition at 500 µM (PfCRT^3D7 [9]; [24]): 99 ± 4.7%
- inhibition at 1000 µM (PfCRT^3D7 [9]; [24]): 101 ± 3.8%
- inhibition at 2000 µM (PfCRT^3D7 [9]; [24]): 99 ± 4.7%
- inhibition at 500 µM (PfCRT^3D7 [9]; [25]): 2.8 ± 0.07%
- inhibition at 1000 µM (PfCRT^3D7 [9]; [25]): 2.5 ± 0.04%
- inhibition at 2000 µM (PfCRT^3D7 [9]; [25]): 3.1 ± 0.03%
- Tested as potential co-substrate but not required for influx of VF-6 via PfCRT into the oocyte (PfCRT [10]): X
